We go through 17 compounds from US20250388544A1, “HETEROAROMATIC INHIBITORS OF ASTACIN PROTEINASES” (VIVORYON THERAPEUTICS N.V., priority 2019, published 2025).

For one test, the target named is T1, hMeprin α (Homo sapiens, UniProt Q16819).
T1 sequence (Q16819 66-746): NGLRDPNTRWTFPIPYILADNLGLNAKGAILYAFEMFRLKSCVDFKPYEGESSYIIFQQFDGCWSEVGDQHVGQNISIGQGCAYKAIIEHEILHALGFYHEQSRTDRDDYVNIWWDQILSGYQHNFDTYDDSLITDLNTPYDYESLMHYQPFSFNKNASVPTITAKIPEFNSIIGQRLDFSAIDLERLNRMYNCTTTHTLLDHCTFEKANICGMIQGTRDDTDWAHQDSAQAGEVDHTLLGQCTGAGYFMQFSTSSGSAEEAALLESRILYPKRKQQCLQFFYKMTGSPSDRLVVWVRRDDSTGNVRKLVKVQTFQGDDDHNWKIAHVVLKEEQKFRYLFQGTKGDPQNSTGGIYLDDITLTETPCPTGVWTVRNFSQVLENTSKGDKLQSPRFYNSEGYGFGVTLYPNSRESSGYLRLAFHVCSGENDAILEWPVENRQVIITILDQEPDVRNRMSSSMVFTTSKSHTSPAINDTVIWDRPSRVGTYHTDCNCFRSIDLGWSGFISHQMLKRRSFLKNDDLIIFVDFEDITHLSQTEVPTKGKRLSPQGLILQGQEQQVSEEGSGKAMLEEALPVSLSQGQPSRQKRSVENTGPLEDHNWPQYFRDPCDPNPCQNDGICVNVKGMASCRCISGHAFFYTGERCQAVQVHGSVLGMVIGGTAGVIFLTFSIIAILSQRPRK
Briefly: Enzymatic assay, quenched peptide substrate cleavage, method B. The conditions noted are these: geometric mean (geometric SD factor in parentheses); for Ki: Morrison's equation, read-out: Meprin alpha Ki(app); for IC50: read-out: Meprin alpha IC50. In kind it is biochemical. The procedure:
(§1) The determination of enzymatic activity was based on the cleavage of internally quenched peptide substrates. A typical assay of 250 μl total volume measured in black 96 well plates consisted of 100 μl buffer, 50 μl enzyme at a final concentration of 5e-8 M to 2e-10 M, 50 μl substrate (0.15 to 80 μM, in buffer, 0.5% DMSO) and 50 μl inhibitor solution (in buffer, 1% DMSO). In case of 125 μl assay volume (black 96 half area well plates) all volumes were cut in half. Enzymatic activity of ADAMs was measured in 384 well plates with 60 μl total assay volume consisting of 20 μl inhibitor, 20 μl buffer, 10 μl enzyme and 10 μl substrate.
(§2) Based on method B Ki^(app) values were determined using Morrison's equation. All measurements were performed using a fluorescence plate reader (FLUOSTAR OPTIMA, BMG Labtech) at 30° C. The kinetic parameters were determined at least in duplicates on separate days. The excitation/emission wavelength was 340/420 nm. The kinetic data was evaluated using GRAFIT software (version 7.0.3, Erithacus Software).

For another test, the target named is T2, hMeprin β (Homo sapiens, UniProt Q16820).
T2 sequence (Q16820 62-701): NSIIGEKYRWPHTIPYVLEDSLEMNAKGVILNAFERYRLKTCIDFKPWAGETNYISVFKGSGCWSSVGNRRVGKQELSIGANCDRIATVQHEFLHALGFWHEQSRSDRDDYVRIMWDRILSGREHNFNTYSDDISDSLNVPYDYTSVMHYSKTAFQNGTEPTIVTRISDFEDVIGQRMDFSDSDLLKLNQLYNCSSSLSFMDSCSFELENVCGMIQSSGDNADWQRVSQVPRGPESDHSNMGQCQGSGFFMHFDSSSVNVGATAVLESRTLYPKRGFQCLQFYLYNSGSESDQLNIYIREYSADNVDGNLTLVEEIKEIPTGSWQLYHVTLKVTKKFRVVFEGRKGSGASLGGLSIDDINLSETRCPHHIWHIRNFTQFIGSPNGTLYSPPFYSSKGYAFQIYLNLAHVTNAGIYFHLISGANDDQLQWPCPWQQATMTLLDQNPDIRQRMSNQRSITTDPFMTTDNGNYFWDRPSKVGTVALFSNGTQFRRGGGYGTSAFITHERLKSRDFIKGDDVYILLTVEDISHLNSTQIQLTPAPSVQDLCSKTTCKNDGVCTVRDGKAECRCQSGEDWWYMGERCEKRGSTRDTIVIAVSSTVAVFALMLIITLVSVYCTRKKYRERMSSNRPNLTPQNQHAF
The test is described as above. In kind it is biochemical. The conditions noted are these: geometric mean (geometric SD factor in parentheses); for Ki: Morrison's equation, read-out: Meprin beta Ki(app); for IC50: read-out: Meprin beta IC50. How it is done: as §1, §2

As to `O=C(Cc1c(-c2ccc(C(=O)O)cc2)n[nH]c1-c1cccc(C(=O)O)c1)NO` [Example 66, 3-[3-(4-Carboxyphenyl)-4-[2-(hydroxyamino)-2-oxo-ethyl]-1H-pyrazol-5-yl]benzoic acid], the Ki amounted to 20 nM at hMeprin α and 32 nM at hMeprin β. For the same compound, the IC50 on hMeprin α stood at 21 nM; at hMeprin β, 32 nM.

`O=C(Cc1c(-c2cccc(C(=O)O)c2)n[nH]c1-c1cc(F)c(O)c(Cl)c1)NO` [Example 64, 3-[5-(3-Chloro-5-fluoro-4-hydroxy-phenyl)-4-[2-(hydroxyamino)-2-oxo-ethyl]-1H-pyrazol-3-yl]benzoic acid]: the Ki worked out at 0.14 nM at hMeprin α and 0.24 nM at hMeprin β. Besides, the IC50 at hMeprin α was 0.24 nM; on hMeprin β it was 0.26 nM.

Regarding `O=C(Cn1c(-c2ccc(Cl)c(O)c2F)nc2cc(C(=O)O)ccc21)NO` [Example 21, 2-(4-Chloro-2-fluoro-3-hydroxy-phenyl)-1-[2-(hydroxyamino)-2-oxo-ethyl]benzimidazole-5-carboxylic acid], on hMeprin α, the Ki came out at 435 nM and the IC50 came out at 443 nM. For the same compound, on hMeprin β, the Ki is 119 nM and the IC50 amounted to 125 nM.

Turning to `O=C(Cc1c(-c2ccc(C(=O)O)cc2)n[nH]c1-c1ccc(Cl)c(O)c1F)NO` [Example 65, 4-[5-(4-Chloro-2-fluoro-3-hydroxy-phenyl)-4-[2-(hydroxyamino)-2-oxo-ethyl]-1H-pyrazol-3-yl]benzoic acid], the Ki on hMeprin α worked out at 10 nM; at hMeprin β, 11 nM. Besides, the IC50 at hMeprin α amounted to 10 nM; on hMeprin β it was 12 nM.

Turning to `O=C(Cc1c(C2CCCC(C(=O)O)C2)n[nH]c1-c1ccccc1)NO` (centres unmarked) [Example 74, 3-[4-[2-(Hydroxyamino)-2-oxo-ethyl]-5-phenyl-1H-pyrazol-3-yl]cyclohexanecarboxylic acid], on hMeprin α, the Ki stood at 1 nM and the IC50 is 1 nM. On hMeprin β, the Ki worked out at 55 nM and the IC50 turned out to be 55 nM.

On to `O=C(Cc1c(-c2ccc(Cl)c(O)c2F)n[nH]c1-c1ccccc1)NO` [Example 53, 2-[3-(4-Chloro-2-fluoro-3-hydroxy-phenyl)-5-phenyl-1H-pyrazol-4-yl]ethanehydroxamic acid], for which, at hMeprin α, the Ki is 2 nM and the IC50 amounted to 3 nM. Further, on hMeprin β, the Ki was 61 nM and the IC50 is 61 nM.

With `O=C(Cn1c(-c2ccc(C(=O)O)cc2)nc2ccccc21)NO` [Example 19, 4-[1-[2-(Hydroxyamino)-2-oxo-ethyl]benzimidazol-2-yl]benzoic acid], on hMeprin α, the Ki worked out at 71 nM and the IC50 was determined as 75 nM. Besides, on hMeprin β, the Ki turned out to be 119 nM and the IC50 turned out to be 127 nM.

For the compound `O=C(Cc1c(-c2c[nH]nc2C(F)(F)F)n[nH]c1-c1ccccc1)NO` [Example 70, 2-[5-Phenyl-3-[3-(trifluoromethyl)-1H-pyrazol-4-yl]-1H-pyrazol-4-yl]ethanehydroxamic acid], the Ki came to 2 nM on hMeprin α and 88 nM on hMeprin β. For the same compound, the IC50 on hMeprin α came to 2 nM; at hMeprin β, 89 nM.

For the compound `O=C(Cc1c(-c2cccc(-c3nnn[nH]3)c2)n[nH]c1-c1ccccc1)NO` [Example 71, 2-[5-Phenyl-3-[3-(1H-tetrazol-5-yl)phenyl]-1H-pyrazol-4-yl]ethanehydroxamic acid], at hMeprin α, the Ki was 0.71 nM and the IC50 amounted to 0.71 nM. Moreover, at hMeprin β, the Ki was 7 nM and the IC50 worked out at 7 nM.

Consider `O=C(Cc1c(-c2ccc(C(=O)O)cc2)n[nH]c1-c1ccccc1)NO` [Example 52, 4-[4-[2-(Hydroxyamino)-2-oxo-ethyl]-5-phenyl-1H-pyrazol-3-yl]benzoic acid], for which, on hMeprin α, the Ki is 17 nM and the IC50 was 18 nM. In addition, on hMeprin β, the Ki is 116 nM and the IC50 came to 130 nM.

In the case of `O=C(Cc1c(-c2cccc(C(=O)O)c2)[nH]nc1[C@H]1CC[C@@H](C(=O)O)CC1)NO` [Example 77, cis-3-[3-(4-carboxycyclohexyl)-4-[2-(hydroxyamino)-2-oxo-ethyl]-1H-pyrazol-5-yl]benzoic acid], on hMeprin α, the Ki was 23 nM and the IC50 is 24 nM. Further, at hMeprin β, the Ki was 15 nM and the IC50 was 15 nM.

As to `O=C(Cn1c(-c2ccccc2C(=O)O)nc2ccccc21)NO` [Example 17, 2-[1-[2-(Hydroxyamino)-2-oxo-ethyl]benzimidazol-2-yl]benzoic acid], at hMeprin α, the Ki came to 1390 nM and the IC50 amounted to 1430 nM. For the same compound, at hMeprin β, the Ki was 13200 nM and the IC50 was determined as 13700 nM.

Turning to `O=C(Cc1c(-c2ccc(Cl)c(O)c2F)n[nH]c1-c1ccc(Cl)c(O)c1F)NO` [Example 60, 2-[3,5-Bis(4-chloro-2-fluoro-3-hydroxy-phenyl)-1H-pyrazol-4-yl]ethanehydroxamic acid], at hMeprin α, the Ki was 4 nM and the IC50 amounted to 4 nM. In addition, at hMeprin β, the Ki was 14 nM and the IC50 turned out to be 14 nM.

Consider `COc1ccc(-c2n[nH]c(-c3ccccc3)c2CC(=O)NO)cc1` [Example 48, 2-[3-(4-Methoxyphenyl)-5-phenyl-1H-pyrazol-4-yl]ethanehydroxamic acid], for which, on hMeprin α, the Ki amounted to 1 nM and the IC50 stood at 1 nM. Also, at hMeprin β, the Ki was 62 nM and the IC50 was determined as 64 nM.

`O=C(Cn1c(-c2ccc(Cl)c(O)c2F)nc2ccc(C(=O)O)cc21)NO` [Example 22, 2-(4-Chloro-2-fluoro-3-hydroxy-phenyl)-3-[2-(hydroxyamino)-2-oxo-ethyl]benzimidazole-5-carboxylic acid]: on hMeprin α, the Ki came to 6 nM and the IC50 was determined as 6 nM. On hMeprin β, the Ki stood at 7 nM and the IC50 was found to be 8 nM.

Consider `O=C(Cc1c(C2CCCC2)n[nH]c1-c1ccccc1)NO` [Example 45, 2-(3-Cyclopentyl-5-phenyl-1H-pyrazol-4-yl)ethanehydroxamic acid], for which, at hMeprin α, the Ki stood at 6 nM and the IC50 is 6 nM. At hMeprin β, the Ki worked out at 320 nM and the IC50 came out at 327 nM.

For `Cc1n[nH]c(-c2ccccc2)c1CC(=O)NO` [Example 44, 2-(3-Methyl-5-phenyl-1H-pyrazol-4-yl)ethanehydroxamic acid], the Ki on hMeprin α came out at 302 nM; at hMeprin β, 2110 nM. Also, the IC50 at hMeprin α amounted to 310 nM; at hMeprin β, 2170 nM.
